These results are taken from US20250255847A1, “[…]s: Novel Drugs for Triple Negative Breast Cancer” (SIMMARON RSEARCH INC, priority 2024, published 2025).

Test [1] concerns the target T1, DNA binding activity of STAT3 (Homo sapiens, UniProt P40763).
T1 construct: endogenous in cells; host or cells: MDA-MB-468 (nuclear extract)
The test is described as follows: Electrophoretic mobility shift assay (EMSA) in nuclear extracts. Format: cell-based. As to conditions: EGF (20 ng/mL)-stimulated MDA-MB-468 nuclear extract, SIM-1 20 nM (FIG. 9B). The procedure: FIG. 9 illustrates an embodiment of the present invention and illustrates promoter recruitment assay of STAT3 in IL6 promoter. (A) MDA-MB-468 cells were treated with 5, 10, and 20 ng/mL doses of EGF for 5 hrs followed by immunoblot (IB) analyses of Y705 phospho and S727 phospho STAT3 in nuclear extracts. Histone 3 ([…]) IB was run as control. (B) EMSA analyses were performed in nuclear extracts of EGF (20 ng/mL)- and EGF+SIM-1 (20 nM)-treated MDA-MB-468 cells against the STAT3-specific oligonucleotide probe (Li-Cor bioscience; Cat #P/N: 829-07922) or SEQ ID NO: 1 and resolved in 6% DNA retardation gel (Invitrogen). (C) Chromatin immunoprecipitation assay was performed in the nuclear extracts of MDA-MB-468 cells treated with EGF or EGF+SIM-1 for 5 hrs. Y705P STAT3 antibody was used for chromatin immunoprecipitation and IgG precipitation was performed as a control.
Electrophoretic Mobility Shift Assay (EMSA). EMSA was performed in […] as described before. […] were treated with 25 ng/mL EGF alone or together with SIM1 (5 nM) for 5 hrs followed by nuclear fractionation with nuclear extraction kit (Abcam). […]

Another test has as its system MDA-MB-468 TNBC cells. The test is described as follows: Annexin V / propidium iodide dual labeling in MDA-MB-468 cells. Format: cell-based, human. As to conditions: 24 hrs; for membrane labeling of Annexin V and nuclear staining of PI: increasing doses. The protocol: FIG. 11 illustrates an embodiment of the present invention and illustrates SIM-1 and SIM-2 induced apoptosis in MDA-MB-468 TNBC cells, but not HMEC control cells. MDA-MB-468 cells were treated with increasing doses of (A) SIM-1 and (B) SIM-2 for 48 hrs followed by lactate dehydrogenase (LDH) release assay in the supernatants. The result was offset with cell-bound LDH and presented as a percent of DMSO control as discussed under method section. Half-maximal cytotoxicity or CT50 analyses were performed plotting maximum response as an index of increasing doses of (C) SIM-1 and (D) SIM-2. AnnexinV (green) and propidium iodide (red) dual-labeling were performed to evaluate apoptotic response in MDA-MB-468 cells once treated with increasing doses of (E) SIM-1 and (F) SIM-2 for 24 hrs. Nuclei were stained with DAPI. TUNEL assay was performed in MDA-MB-468 cells after treatment with 25 nM of (G) SIM-1. Brown-colored TUNEL bodies were visualized at cresyl violet-stained blue nuclei. (H) The number of TUNEL bodies were counted as a percent of 100 cresyl violet-stained blue cells. Ten independent images were counted for the quantification study. Similarly, SIM-2 was assessed for (I) TUNEL and (J) subsequent quantification analyses. One-way ANOVA was performed to test the significance of mean between groups at **p<0.01 and ****p<0.0001. (K) LDH release assay was performed in non-tumor origin human mammary epithelial cells (HMEC) once treated with increasing doses of SIM-1 and SIM-2 for 48 hrs. Ns=no significance. (L) Annexin V (green) and propidium iodide (red) staining was performed in 25 nM SIM-1- and SIM-2-treated HMEC cells. Nuclei were stained with DAPI. Results are confirmed after three different experiments.
Annexin V/PI Dual Staining Protocol. Annexin V/PI Dual Staining was performed as per manufacturer's instruction (Cat #: 2752665; Vendor: Thermo Fisher Scientific). Chamber slides of MDA-MB-468 cells in serum-free media were treated with SIMPYRA-1 and SIMPYRA-2 at doses of 2 nM, 5 nM, 10 nM, […] 50 nM for 24 hours at 37° C. Each well was washed with 1×PBS, then treated with 1× annexin-binding buffer, 100 ug/mL PI solution, and Annexin V solution. Chamber slides were incubated in the dark at room temperature for 2 hours. Each well was washed twice with 1×PBS and once with 1:500 dilution of DAPI in 1×PBS. Cells were imaged using CaptaVision+™ Software.
This example provides a representative experiment that studies if SIM-1 and SIM-2 promoted the death of TNBC cells. […] During apoptosis, phosphatidyl serine of the plasma membrane flips from the inner to the outer membrane which can be detected by Annexin V labeling, whereas PI stains the nucleus of a cell with compromised integrity of the plasma membrane. […]

T1 sequence (P40763 2-770 limits assumed): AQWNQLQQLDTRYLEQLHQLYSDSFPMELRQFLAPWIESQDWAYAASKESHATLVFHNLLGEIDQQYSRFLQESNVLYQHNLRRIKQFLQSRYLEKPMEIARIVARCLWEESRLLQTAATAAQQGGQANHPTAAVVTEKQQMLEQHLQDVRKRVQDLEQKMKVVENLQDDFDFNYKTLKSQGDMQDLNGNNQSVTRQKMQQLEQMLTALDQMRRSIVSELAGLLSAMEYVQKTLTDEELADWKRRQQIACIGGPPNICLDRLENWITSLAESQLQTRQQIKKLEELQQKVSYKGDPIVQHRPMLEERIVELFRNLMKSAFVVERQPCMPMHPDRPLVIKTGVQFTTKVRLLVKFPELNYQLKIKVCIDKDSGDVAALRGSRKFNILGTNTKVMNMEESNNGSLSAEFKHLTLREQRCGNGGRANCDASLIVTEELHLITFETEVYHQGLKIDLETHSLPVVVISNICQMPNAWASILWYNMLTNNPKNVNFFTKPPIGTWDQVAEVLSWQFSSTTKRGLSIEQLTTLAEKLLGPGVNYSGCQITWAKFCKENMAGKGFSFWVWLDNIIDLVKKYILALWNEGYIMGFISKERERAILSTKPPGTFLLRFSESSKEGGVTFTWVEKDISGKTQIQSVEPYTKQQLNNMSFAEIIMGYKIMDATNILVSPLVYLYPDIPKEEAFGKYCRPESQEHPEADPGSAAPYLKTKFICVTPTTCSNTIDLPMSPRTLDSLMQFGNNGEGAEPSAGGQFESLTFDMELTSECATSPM

On to `O=C(O)CCC(=O)NCc1csc2ccc(Cl)cc12` [SIM-1, 4-[(5-chloro-1-benzothiophen-3-yl)methylamino]-4-oxobutanoic acid], for which the “DNA binding activity of STAT3” value in test [1] is “markedly inhibited”. Besides, in the test on MDA-MB-468 TNBC cells, the “concentration of maximum Annexin V / PI labeling” value came to 25 nM; the “membrane labeling of Annexin V and nuclear staining of PI” value is “dose-dependently increased”.

`CCOC(=O)c1c(NC(C)=O)sc2c(Cl)c(/C=N/O)ccc12` [SIM-2, ethyl 2-acetamido-7-chloro-6-(hydroxyiminomethyl)-1-benzothiophene-3-carboxylate]: in the test on MDA-MB-468 TNBC cells, the “concentration of maximum Annexin V / PI labeling” value is 25 nM; the “membrane labeling of Annexin V and nuclear staining of PI” value is “dose-dependently increased”.
